Data: patent US20030162803A1, “Anhydrovinblastine for the treatment of cancer” (priority 1997, published 2003)

How the values were obtained:
P388 tumors = experiment: Murine P388 model in BDF1 mice; type: in vivo
Description: Antitumor studies on mice focussed, in one case, on the P388 leukaemia model. […] This is an ascitic tumor model that was generated by intraperitoneal inoculation of 1×10^6 P388 cells (derived from culture, with an original cell line obtained from the NCI tumor repository) in BDF1 mice (Charles Rivers). One day after tumor cell inoculation, mice were treated with a single intravenous injection of drug. Animal weight was monitored daily and tumor progression was measured as an increase in animal weight and through estimation of survival time. Therapy was described by a decrease in tumor progression and an increase in survival time relative to an untreated control group. Initial studies established the maximum therapeutic dose for AHVB. Subsequently comparative studies with vincristine and Navelbine™ were initiated where animals were treated with each drug at the maximum therapeutic dose.
The in vivo anti-tumor activity of AHVB was compared to that of vincristine, Navelbine™ in the BDF1-murine P388 model in the procedure as follows. P388 cells were derived from the ascities of previously injected female BDF1 mice (19-21 grams) P388 cells, from the NCI tumor repository were inoculated directly into mice. The cells arrive from NCI frozen in 1 ml aliquots. These samples were thawed rapidly at 37° C. and subsequently injected (within 1 hour) intraperitoneally into two mice, 0.5 ml per mouse. One week (7 days) after inoculation, the tumor cells were harvested by removing peritoneal fluid using a sterile syringe with a 22 gauge needle. The cells, pooled from two animals, were counted using a hemocytometer, diluted (RPMI media) to a concentration of 2×10^6 cells/ml and 0.5 ml was then re-injected into each of two BDF1 mice. Remaining cells were washed and placed into a DMSO containing media and frozen (in freezer packs that cool at a defined rate). This process was repeated weekly over a […]. Cells used for anti-tumor studies were collected from the third passage to the 20th passage. After the 20th passage the cells were no longer used for experimental studies. Newly established cells were derived from the frozen cells prepared as described above.
Groups (five mice per group) of female BDF1 mice (Charles Rivers, Canada) were injected (intraperitoneal) with 10^6 P388 cells (as described above). One day after tumor cell inoculation, the mice were given a bolus intravenous injection of indicated drug via the lateral tail vein. Control groups were injected with saline. Free drug samples were prepared on the day of injection such that the final concentrations were sufficient to deliver the indicated drug dose in a volume of 200 μl. All dilutions were made using 0.9% Sodium Chloride Injection USP. The mice were briefly (less than 30 sec.) restrained during intravenous injections. Dilation of the vein was achieved by holding the animals under a heat lamp for a period of between five and ten minutes. Following administration of the test articles, animals were weighed daily for fourteen days and monitored for signs of stress twice daily for the first 14 days (once daily on weekends) and once daily for the remainder of the study. Severely distressed animals were terminated by CO2 asphyxiation and the time of death was recorded to occur on the following day. Although complete dose titrations were completed for each drug, the data shown in FIG. 6 is that obtained after administration of the free drugs at their maximum tolerated dose. This was 3, 40 and 40 mg/kg for vincristine, Navelbine™ and AHVB, respectively.
After treating mice (bearing the P388 tumor) with a single dose of the indicated drug, animals were examined twice daily for the first 14 days (once daily on weekends). Weight gain in the control is an indication of tumor progression.
The studies were conducted as described for FIG. 6. […]

[1] = tested on: advanced refractory solid tumors; experiment: Phase I clinical trial, disease response; type: in vivo, human patients
Description: Patients had normal bone marrow, hepatic and renal function. Twenty-four patients were treated with escalating doses of AHVB, administered as a 1 hour infusion every 3 weeks. The 24 patients comprised 12 male and 12 female patients with a median age of 60 years (range 27-75 years). Twenty-one of the 24 patients were evaluable. Diagnoses were non-small cell lung cancer (NSCLC), colorectal cancer, soft tissue sarcoma, pancreatic cancer, breast cancer and metastatic neuroendocrine cancer in 11, 5, 4, 1, 1, and 1 patient(s), respectively. […] A total of 51 courses were administered at doses of 2.5, 5, 10,16.5, 21,25 and 30 mg/m^2 to 1,3, 1,3, 6, 6 and 1 patient(s), respectively (see Table 4).

[2] = tested on: H460 human non-small cell lung carcinoma tumor xenograph; experiment: H460 SC tumor mouse model; type: in vivo, SCID/Rag-2 mice
Description: Cultures of H460 Human Lung cells are available from the British Columbia Cancer Research Center. Cells were injected subcutaneously twice into mature male Rag-2 mice (24 mice, 1×10^6 cells/mouse) using a 26-gauge needle. The H460 cells were suspended in a Hank's Balanced Salt Solution without calcium. Tumors were allowed to form in the mice for 11 days.
When the tumors were well established, four separate groups of mice, were selected for administration of the three test articles (i.e. one group for each test article of AHVB bisulphate, AHVB ditartrate, and Navelbine™) and one control.
AHVB bisulphate and ditartrate, and Navelbine™ were solubilized using 5% dextrose saturated with Argon. Both of these articles were at a concentration of 20 mg/ml. Any dose dilutions were made with 5% dextrose.
The articles were administered intravenously on the days 1, 5 and 9, as were controls of 5% dextrose. Body weights and tumor measurements with calipers were taken every day for the first 10 days and then every other day for the remainder of the study.
Following administration of the test articles, the animals; weight and tumor size (using calipers) were determined daily for the first 10 days and then every other day for the remainder of the study. If the tumor size reached 1 gram in weight or the tumor started to ulcerate, the animals were sacrificed (by carbon dioxide inhalation) and subjected to necropsy. Animals were also monitored at least daily for signs of stress for the full length of the study. Animals manifesting severe symptoms of stress (rapid weight loss, panting, hunched posture, scruffy coat) were also sacrificed and a necropsy performed.
The results of the efficacy studies are given in FIG. 9 and present averages of data from 6 or fewer animals. […] Each tumor was measured in length and width and the volume of each tumor was calculated by […]. […] The calculation was performed each day the tumors were measured. The standard deviation of the mean and the standard error of the mean were calculated with the error bars appearing in the graph in FIG. 9. […]

[3] = IV 10 mg/kg and 20 mg/kg on days 1, 5 and 9

CCC1=C[C@H]2CN(CCc3c([nH]c4ccccc34)[C@@](C(=O)OC)(c3cc4c(cc3OC)N(C)[C@H]3[C@@](O)(C(=O)OC)[C@H](OC(C)=O)[C@]5(CC)C=CCN6CC[C@]43[C@@H]65)C2)C1 [AHVB, 3′,4′-anhydrovinblastine]
onset of acute toxic reaction at maximum tolerated dose (P388 tumors; 40 mg/kg IV): ≤ 1 h | anti-tumor activity, number of long term survivors (>60 days) (P388 tumors; 40 mg/kg single IV injection vs vincristine 3 mg/kg, FIG. 6): significantly better than that observed for vincristine | times less toxic (on a weight basis) than vincristine (P388 tumors; mouse, in vivo): approximately 10 times | toxicity (vinca alkaloid induced weight loss) (P388 tumors; single IV injection at maximum tolerated dose, 40 mg/kg, FIG. 4): least toxic of the three drugs evaluated | maximum tolerated dose (P388 tumors; single bolus intravenous injection, BDF1 mice bearing P388 tumors): 40 mg/kg | stable disease ([1]; metastatic NSCLC, 21 and 25 mg/m^2): three patients | stable disease ([1]; metastatic sarcoma to lungs, 10 mg/M^2): one patient | toxicity compared with Navelbine [2, 3]: less toxic than Navelbine™ | tumor growth inhibition compared with Navelbine [2, 3]: greater tumor growth inhibition | activity compared with vincristine and vinorelbine ([2]; human tumor xenografts of NSCLC, equitoxic doses): superior activity to that of both vincristine and vinorelbine
